Assay results: patent publication EP4029501A1, “COMBINATION OF POLYAROMATIC UREA DERIVATIVES AND GLUCOCORTICOID OR HDAC INHIBITOR FOR THE TREATMENT OF DISEASES OR CONDITIONS ASSOCIATED WITH MUSCLE CELLS AND/OR SATELLITE CELLS” (Anagenesis Biotechnologies, priority 2021, dated 2022)
Where two headings read alike, the source gives them in different places.

Legend:
[1] = system: muscle progenitors derived from DMD hiPSC; assay: Myotube assay: total myotube area per well (alpha-actinin staining); format: cell-based, human; conditions: for Emax / EC50: Homo sapiens, Myotube
Method in brief: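 DMD hiPSC-derived muscle progenitors (NCRM-1 background) plated at 3500 cells/well in K5 medium with 5 µM Y-27632, then exposed to compound at 1.5 nM–30 µM for 3 days at 37°C. Cells fixed on day 7, alpha-actinin-immunostained and total myotube area per well quantified; duplicates averaged, EC50 and normalized myotube area derived.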

[2] = system: Pax7-positive cells; assay: Myotube assay: Pax7-positive (satellite-like) cell quantification; format: cell-based, human; parameters: key to Pax7: (-) : Depletes the pool of cells, while positively affects the myotubes; (+) : Maintains or increases the pool of cells, with at least 1 of the highest concentration known to be cytotoxic; (++) Maintains or increases the pool of cells, without any toxicity; conditions: for Pax7: comparative compounds, effect on pool of Pax7-positive cells
From the text: The efficacy of said compound for use in treating, ameliorating, delaying, curing and/or preventing a disease or condition associated with muscle cells and/or satellite cells is positively correlated with the generation of myotubes (i.e. the increase of the area occupied by myotubes on the assay) and/or satellite cells (i.e. the increase of the number of satellite cells) in the assay after adding said compound. The generation of myotubes by the addition of said compound is expressed as the EC50 value, the concentration of said compound that corresponds with the half-maximal generation of myotubes, and the MA (normalized myotube area) value, the normalized area occupied by generated myotubes on the assay. […] Since muscle cells are formed from myotubes during myogenesis, the generation of myotubes in the assay is a good indicator of the ability of said compound to induce the formation of functional muscle cells in vivo. The number of satellite cells is measured as the percentage of Pax7 positive cells, relative to the total number of cells in the assay, as shown in Figure 3. The percentage of Pax7 is a good indicator of the ability of said compound to induce the formation of satellite cells which are able to play a role in muscle repair and regeneration in vivo.
DMD human induced pluripotent stem cells (hereafter "DMD hiPSC"), generated from the NCRM-1 hiPSC WT cell line by gene editing, or WT human induced pluripotent stem cells (hereafter "WT hiPSC"), being NCRM-1 hiPSC wt cell line, have been differentiated according to Chal et al. 2015, 2016, to produce muscle progenitors (hereafter "hMP"). The hMP population contains satellite-like cells (i.e Pax7-positive cells) and satellite cells' progenies (i.e. Myogenin-positive cells).
Figure 1 provides an example of a Myotube assay workflow. At day 0, hMP are thawed and 3.1 million cells are plated into a T75-flask coated with hESC-qualified Matrigel™ (Corning) in SkGM proliferating medium (PromoCells), supplemented with 5 µM Y-27632 (Tocris Bioscience). On day 2, SkGM proliferating medium is refreshed. On day 4, hMP are harvested and transferred into a 384-well plate coated with collagen type I at a density of 3500 cells/well in a DMEM-based medium, containing 5% of knockout serum replacement (Gibco), 1% PenStrep (Gibco), 1% MEM NEAA (Gibco) and 0.1 mM 2-mercaptoethanol (Gibco) (hereafter "K5 medium") and 5 µM Y-27632. Compounds to be tested are then added in the medium and incubated for 3 days at 37°C. On day 7, cells are fixed and immunostained. For example, myotubes (alpha-actinin staining) and satellite-like (Pax7 staining) cells can be analyzed for total myotube area per well or Pax7-positive cell quantification.
DMD hMP were put in the Myotube assay according to the workflow described in Example 2.1. In particular, compound (i) was added at concentrations ranging from 1.5 nM to 30 µM, starting from day 4. hMP were cultivated for three more days in presence of compound (i), then fixed and analyzed for percentage of Pax7-positive cells and nuclei number. Duplicates of each condition were averaged.
(-) : Depletes the pool of cells, while positively affects the myotubes; (+) : Maintains or increases the pool of cells, with at least 1 of the highest concentration known to be cytotoxic; and (++) Maintains or increases the pool of cells, without any toxicity.

[3] = 72 h, comparative compounds, same assay as Table 3, NA: non active, read-out: MA
[4] = comparative compounds, same assay as Table 3, NA: non active

SMILES	Emax [1, 3]	EC50 [1, 4]	Pax7 [2]	MA [1, 4]	myotube surface ([1]; DMD hMP, 10 increasing concentrations 1.5 nM to 30 µM, 3 days (figure 2))	Emax ([1]; 72 h, efficacy, MA = normalized Myotube Area, 3 days incubation, DMD or WT cell source not given)	EC50 ([1]; 72 h, myogenic activity, half-maximal generation of myotubes, 10 points dose-response 1.5 nM to 30 µM, 3 days, DMD or WT cell source not given)	percentage of Pax7-positive cells ([2]; DMD hMP, 10 increasing concentrations 1.5 nM to 30 µM, 3 days (figure 3))
Cc1ccc(-n2nc(C(C)(C)C)cc2NC(=O)Nc2ccc(OCCN3CCOCC3)c3ccccc23)cc1 [BIRB-796]	≥ 75%	≥ 5 µM	++					
CNC(=O)c1cc(Oc2ccc(NC(=O)Nc3ccc(Cl)c(C(F)(F)F)c3)cc2)ccn1 [Sorafenib]	25 to 50%	≥ 5 µM	++					
CC(C)(C)c1cc(NC(=O)Nc2ccc(Oc3ccnc4[nH]c(=O)cnc34)cc2F)n(-c2ccccc2)n1 [CCT196969, reference compound]		0.5 to 1 µM	+	++ (++: 50% ≤ MA <75%)				
CNC(=O)c1cc(Oc2ccc(NC(=O)Nc3cc(C(C)(C)C)nn3-c3ccc4ncccc4c3)c(F)c2)ccn1 [Rebastinib, reference compound]		1 to 5 µM	+					
CC(C)n1nc(C(C)(C)C)cc1NC(=O)Nc1ccc(Oc2ccnc3[nH]c(=O)cnc23)cc1F [(i), 1-(3-(tert-butyl)-1-isopropyl-1H-pyrazol-5-yl)-3-(2-fluoro-4-((3-oxo-3,4-dihydropyrido[2,3-b]pyrazin-8-yl)oxy)phenyl)urea]					dose-dependent increase of myotube surface	50 to 75%	1 to 5 µM	dose-dependent increase percentage of Pax7-positive cells
